Test results: patent US20080249042A1, “All-Trans-Retinol: All-Trans-13,14-Dihydroretinol Saturase and Methods of Its Use” (UNIVERSITY OF WASHINGTON, priority 2004, published 2008)

Legend:
[1] = Liver retinoids of Lrat-/- mice 3 h after gavage with all-trans-RA; type: in vivo, mouse; conditions: 3 h post-gavage
Source text: Metabolism of Retinoids in Vivo. All animal experiments employed procedures approved by the University of Washington and conformed to recommendations of the American Veterinary Medical Association Panel on Euthanasia and recommendations of the Association of Research for Vision and Ophthalmology. Animals were maintained on a 12-h light and 12-h dark cycle. All manipulations were done under dim red or infrared light (>560 nm). Most experiments used 6-12-week-old mice. Lrat−/− mice were genotyped as described previously. Batten, et al. J. Biol. Chem. 279:10422-10432, 2004. Animals were maintained on a control chow diet up to 1 h prior to oral gavage. The appropriate amount of all-trans-ROL palmitate, all-trans-DROL, or all-trans-RA was dissolved in vegetable oil and administered by oral gavage 3 h prior to analysis.
Analysis of Retinoids. Liver (1 g) from retinoid gavaged or naive mice was homogenized in 2 ml of 137 mM NaCl, 2.7 mM KCl, and 10 mM sodium phosphate (pH 7.4) for 30 s using a Polytron homogenizer. 10 μl of 5 M NaOH was added to 3 ml of the ethanolic extract, and the nonpolar retinoids were extracted using 5 ml of hexane. The extraction was repeated, and the organic phases were combined, dried under vacuum, resuspended in hexane, and examined by normal phase HPLC using a normal phase column (Beckman Ultrasphere Si 5μ, 4.6×250 mm). […] The HPLC elution conditions were […], 100% buffer A for 40 min, 100% buffer B for 10 min, and 10 min equilibration in buffer A. The elution profiles of RA and DRA were monitored using an online diode array detector set at 350 and 290 nm, respectively. […] The measured area of absorbance was converted to picomoles based on a calibration of the HPLC columns using a known amount of all-trans-RA or all-trans-ROL (Sigma) and all-trans-DROL or all-trans-DRA (synthetic standards). The extraction efficiency was monitored by spiking a tissue sample with [^3H]RA (PerkinElmer Life Sciences) and monitoring the radioactivity recovered from the HPLC column. […]

mouse RetSat = target: T1, mouse RetSat (Mus musculus, UniProt Q64FW2); conditions: earlier report, Moise et al. 2004; cited from earlier work
T1 construct: expressed in transfected cells
T1 sequence (Q64FW2 26-609): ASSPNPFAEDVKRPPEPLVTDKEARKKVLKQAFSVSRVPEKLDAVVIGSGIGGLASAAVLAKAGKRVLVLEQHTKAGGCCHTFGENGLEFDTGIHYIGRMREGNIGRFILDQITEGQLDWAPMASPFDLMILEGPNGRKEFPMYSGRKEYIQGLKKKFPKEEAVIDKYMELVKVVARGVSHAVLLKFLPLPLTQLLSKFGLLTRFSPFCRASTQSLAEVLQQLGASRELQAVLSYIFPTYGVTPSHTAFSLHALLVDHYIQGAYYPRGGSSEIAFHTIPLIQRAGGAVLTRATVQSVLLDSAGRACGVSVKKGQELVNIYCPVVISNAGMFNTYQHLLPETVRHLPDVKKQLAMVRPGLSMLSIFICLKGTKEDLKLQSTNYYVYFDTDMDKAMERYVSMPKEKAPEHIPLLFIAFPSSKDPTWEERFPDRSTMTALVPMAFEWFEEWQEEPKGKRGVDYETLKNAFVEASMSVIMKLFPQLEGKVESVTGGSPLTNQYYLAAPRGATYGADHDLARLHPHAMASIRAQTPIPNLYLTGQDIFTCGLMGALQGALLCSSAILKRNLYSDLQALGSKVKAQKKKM

SMILES: CC1=C(/C=C/C(C)=C/C=C/C(C)CC(=O)O)C(C)(C)CCC1 (stereo not drawn) [all-trans-DRA, all-trans-13,14-dihydroretinoic acid]
- Formation in liver after gavage with all-trans-RA [1]: no evidence

SMILES: CC1=C(/C=C/C(C)=C/C=C/C(C)=C/C(=O)O)C(C)(C)CCC1 [all-trans-RA, all-trans-retinoic acid, reference compound]
- Saturation by RetSat (mouse RetSat): does not saturate
